Measured values taken from the NIST ThermoML archive (doi:10.1021/je0342320).
Numbers after ± are expanded uncertainties.

Settings: Liquid, Vibrating tube method

COC(=O)OC [dimethyl carbonate]
mass density (283.15 K, 100 kPa): 1083.17 ± 0.63 kg/m3
mass density (283.15 K, 5000 kPa): 1087.33 ± 0.63 kg/m3
mass density (283.15 K, 10000 kPa): 1091.39 ± 0.63 kg/m3
mass density (283.15 K, 15000 kPa): 1095.34 ± 0.64 kg/m3
mass density (283.15 K, 20000 kPa): 1099.13 ± 0.65 kg/m3
mass density (283.15 K, 25000 kPa): 1102.79 ± 0.65 kg/m3
mass density (283.15 K, 30000 kPa): 1106.39 ± 0.66 kg/m3
mass density (283.15 K, 35000 kPa): 1109.85 ± 0.67 kg/m3
mass density (283.15 K, 40000 kPa): 1113.17 ± 0.68 kg/m3
mass density (288.15 K, 100 kPa): 1076.43 ± 0.62 kg/m3
mass density (288.15 K, 5000 kPa): 1080.8 ± 0.63 kg/m3
mass density (288.15 K, 10000 kPa): 1085.02 ± 0.63 kg/m3
mass density (288.15 K, 15000 kPa): 1089.07 ± 0.64 kg/m3
mass density (288.15 K, 20000 kPa): 1093 ± 0.64 kg/m3
mass density (288.15 K, 25000 kPa): 1096.79 ± 0.65 kg/m3
mass density (288.15 K, 30000 kPa): 1100.48 ± 0.65 kg/m3
mass density (288.15 K, 35000 kPa): 1104.03 ± 0.66 kg/m3
mass density (288.15 K, 40000 kPa): 1107.5 ± 0.67 kg/m3
mass density (293.15 K, 100 kPa): 1069.76 ± 0.62 kg/m3
mass density (293.15 K, 5000 kPa): 1074.22 ± 0.62 kg/m3
mass density (293.15 K, 10000 kPa): 1078.58 ± 0.63 kg/m3
mass density (293.15 K, 15000 kPa): 1082.76 ± 0.63 kg/m3
mass density (293.15 K, 20000 kPa): 1086.83 ± 0.64 kg/m3
mass density (293.15 K, 25000 kPa): 1090.73 ± 0.64 kg/m3
mass density (293.15 K, 30000 kPa): 1094.5 ± 0.65 kg/m3
mass density (293.15 K, 35000 kPa): 1098.19 ± 0.66 kg/m3
mass density (293.15 K, 40000 kPa): 1101.74 ± 0.67 kg/m3
mass density (298.15 K, 100 kPa): 1063.1 ± 0.62 kg/m3
mass density (298.15 K, 5000 kPa): 1067.7 ± 0.62 kg/m3
mass density (298.15 K, 10000 kPa): 1072.21 ± 0.62 kg/m3
mass density (298.15 K, 15000 kPa): 1076.52 ± 0.63 kg/m3
mass density (298.15 K, 20000 kPa): 1080.7 ± 0.63 kg/m3
mass density (298.15 K, 25000 kPa): 1084.74 ± 0.64 kg/m3
mass density (298.15 K, 30000 kPa): 1088.62 ± 0.65 kg/m3
mass density (298.15 K, 35000 kPa): 1092.39 ± 0.65 kg/m3
mass density (298.15 K, 40000 kPa): 1096.04 ± 0.66 kg/m3
mass density (303.15 K, 100 kPa): 1056.41 ± 0.61 kg/m3
mass density (303.15 K, 5000 kPa): 1061.17 ± 0.62 kg/m3
mass density (303.15 K, 10000 kPa): 1065.82 ± 0.62 kg/m3
mass density (303.15 K, 15000 kPa): 1070.29 ± 0.63 kg/m3
mass density (303.15 K, 20000 kPa): 1074.59 ± 0.63 kg/m3
mass density (303.15 K, 25000 kPa): 1078.74 ± 0.63 kg/m3
mass density (303.15 K, 30000 kPa): 1082.75 ± 0.64 kg/m3
mass density (303.15 K, 35000 kPa): 1086.6 ± 0.65 kg/m3
mass density (303.15 K, 40000 kPa): 1090.35 ± 0.65 kg/m3
mass density (308.15 K, 100 kPa): 1049.66 ± 0.61 kg/m3
mass density (308.15 K, 5000 kPa): 1054.59 ± 0.61 kg/m3
mass density (308.15 K, 10000 kPa): 1059.39 ± 0.62 kg/m3
mass density (308.15 K, 15000 kPa): 1064 ± 0.62 kg/m3
mass density (308.15 K, 20000 kPa): 1068.43 ± 0.63 kg/m3
mass density (308.15 K, 25000 kPa): 1072.65 ± 0.63 kg/m3
mass density (308.15 K, 30000 kPa): 1076.8 ± 0.64 kg/m3
mass density (308.15 K, 35000 kPa): 1080.78 ± 0.64 kg/m3
mass density (308.15 K, 40000 kPa): 1084.63 ± 0.65 kg/m3
mass density (313.15 K, 100 kPa): 1042.86 ± 0.61 kg/m3
mass density (313.15 K, 5000 kPa): 1047.94 ± 0.61 kg/m3
mass density (313.15 K, 10000 kPa): 1052.91 ± 0.61 kg/m3
mass density (313.15 K, 15000 kPa): 1057.67 ± 0.62 kg/m3
mass density (313.15 K, 20000 kPa): 1062.22 ± 0.62 kg/m3
mass density (313.15 K, 25000 kPa): 1066.6 ± 0.63 kg/m3
mass density (313.15 K, 30000 kPa): 1070.82 ± 0.63 kg/m3
mass density (313.15 K, 35000 kPa): 1074.93 ± 0.64 kg/m3
mass density (313.15 K, 40000 kPa): 1078.87 ± 0.64 kg/m3
mass density (318.15 K, 100 kPa): 1036.04 ± 0.6 kg/m3
mass density (318.15 K, 5000 kPa): 1041.3 ± 0.61 kg/m3
mass density (318.15 K, 10000 kPa): 1046.44 ± 0.61 kg/m3
mass density (318.15 K, 15000 kPa): 1051.36 ± 0.61 kg/m3
mass density (318.15 K, 20000 kPa): 1056.08 ± 0.62 kg/m3
mass density (318.15 K, 25000 kPa): 1060.6 ± 0.62 kg/m3
mass density (318.15 K, 30000 kPa): 1064.95 ± 0.63 kg/m3
mass density (318.15 K, 35000 kPa): 1069.15 ± 0.63 kg/m3
mass density (318.15 K, 40000 kPa): 1073.21 ± 0.64 kg/m3
mass density (323.15 K, 100 kPa): 1029.21 ± 0.6 kg/m3
mass density (323.15 K, 5000 kPa): 1034.63 ± 0.6 kg/m3
mass density (323.15 K, 10000 kPa): 1039.95 ± 0.61 kg/m3
mass density (323.15 K, 15000 kPa): 1045.04 ± 0.61 kg/m3
mass density (323.15 K, 20000 kPa): 1049.91 ± 0.61 kg/m3
mass density (323.15 K, 25000 kPa): 1054.58 ± 0.62 kg/m3
mass density (323.15 K, 30000 kPa): 1059.07 ± 0.62 kg/m3
mass density (323.15 K, 35000 kPa): 1063.39 ± 0.63 kg/m3
mass density (323.15 K, 40000 kPa): 1067.56 ± 0.63 kg/m3
mass density (328.15 K, 100 kPa): 1022.24 ± 0.6 kg/m3
mass density (328.15 K, 5000 kPa): 1027.92 ± 0.6 kg/m3
mass density (328.15 K, 10000 kPa): 1033.45 ± 0.6 kg/m3
mass density (328.15 K, 15000 kPa): 1038.69 ± 0.61 kg/m3
mass density (328.15 K, 20000 kPa): 1043.71 ± 0.61 kg/m3
mass density (328.15 K, 25000 kPa): 1048.53 ± 0.62 kg/m3
mass density (328.15 K, 30000 kPa): 1053.14 ± 0.62 kg/m3
mass density (328.15 K, 35000 kPa): 1057.57 ± 0.62 kg/m3
mass density (328.15 K, 40000 kPa): 1061.87 ± 0.63 kg/m3
